How the values were obtained:
[1] = tested on: Nonsmall-cell-lung cancer cell lines; assay: NCI in vitro anticancer screen, non-small-cell lung panel; type: cell-based, human; conditions: average of six to nine cell lines; for GI50: Homo sapiens, read-out: Log GI50 (concentration in mol/L causing 50% growth inhibition) (converted)
Procedure: (§1) Compounds described herein were evaluated for in vitro anticancer activity. Particularly the 6a, 6b, 6d, 6h, 8a and 8b compounds were evaluated for in vitro anticancer activity against sixty human tumor cells derived from nine cancer types (leukemia, non-small-cell lung, colon, […], ovarian, prostate, and breast cancer) as shown in (Table 2 and 3). For the compound, dose response curves for each cell line were measured at a minimum of five concentrations at 10 fold dilutions. A protocol of 48 h continuous drug exposure was used and a sulforhodamine B (SRB) protein assay was used to estimate cell viability or growth. The concentration causing 50% cell growth inhibition (GI50), total cell growth inhibition (TGI 0% growth) and 50% cell death (LC50, −50% growth) compared with the control was calculated.

[2] = tested on: Leukemia cancer cell lines; assay: NCI in vitro anticancer screen, leukemia panel; type: cell-based, human; conditions: average of six to nine cell lines; for GI50: Homo sapiens, read-out: Log GI50 (concentration in mol/L causing 50% growth inhibition) (converted)
Procedure: as §1

[3] = tested on: duplex-form calf thymus DNA (CT-DNA); assay: Thermal denaturation studies with CT-DNA; type: binding; conditions: [BPD]:[DNA] molar ratio 1:5, CT-DNA 100 μM, ligand 20 μM, pH 7.00
Procedure: Compounds were subjected to thermal denaturation studies with duplex-form calf thymus DNA (CT-DNA). Working solutions in aqueous buffer (10 mM NaH2PO4/Na2HPO4, 1 mM Na2EDTA, pH 7.00+0.01) containing CT-DNA (100 μm in phosphate) and the BPD (20 μm) were prepared by addition of concentrated BPD solutions in DMSO to obtain a fixed [BPD]/[DNA] molar ratio of 1:5. The DNA-BPD solutions were incubated at 37° C. for 0, 18, and 36 h prior to analysis. Samples were monitored at 260 nm using a Beckman DU-7400 spectrophotometer fitted with high performance temperature controller, and heating was applied at 1° C. min-1 in the 40-90° C. range. DNA helix coil transition temperatures (Tm) were obtained from the maxima in the (dA260)/dT derivative plots. Results are given as the mean±standard deviation from three determinations and are corrected for the effects of DMSO co-solvent using a linear correction term. Drug-induced alterations in DNA melting behavior are given by: ΔTm=Tm(DNA+BPD)−Tm(DNA alone), where the Tm value for the BPD-free CT-DNA is 69.0±0.01.

[4] = tested on: Melanoma cancer cell lines; assay: NCI in vitro anticancer screen, melanoma panel; type: cell-based, human; conditions: average of six to nine cell lines; for GI50: Homo sapiens, read-out: Log GI50 (concentration in mol/L causing 50% growth inhibition) (converted)
Procedure: as §1

[5] = tested on: Breast cancer cell lines; assay: NCI in vitro anticancer screen, breast panel; type: cell-based, human; conditions: average of six to nine cell lines; for GI50: Homo sapiens, read-out: Log GI50 (concentration in mol/L causing 50% growth inhibition) (converted)
Procedure: as §1

[6] = tested on: Renal cancer cell lines; assay: NCI in vitro anticancer screen, renal panel; type: cell-based, human; conditions: average of six to nine cell lines; for GI50: Homo sapiens, read-out: Log GI50 (concentration in mol/L causing 50% growth inhibition) (converted)
Procedure: as §1

[7] = tested on: Ovarian cancer cell lines; assay: NCI in vitro anticancer screen, ovarian panel; type: cell-based, human; conditions: average of six to nine cell lines; for GI50: Homo sapiens, read-out: Log GI50 (concentration in mol/L causing 50% growth inhibition) (converted)
Procedure: as §1

[8] = tested on: Prostate cancer cell lines; assay: NCI in vitro anticancer screen, prostate panel; type: cell-based, human; conditions: average of six to nine cell lines; for GI50: Homo sapiens, read-out: Log GI50 (concentration in mol/L causing 50% growth inhibition) (converted)
Procedure: as §1

[9] = tested on: Colon cancer cell lines; assay: NCI in vitro anticancer screen, colon panel; type: cell-based, human; conditions: average of six to nine cell lines; for GI50: Homo sapiens, read-out: Log GI50 (concentration in mol/L causing 50% growth inhibition) (converted)
Procedure: as §1

[10] = tested on: CNS cancer cell lines; assay: NCI in vitro anticancer screen, CNS panel; type: cell-based, human; conditions: average of six to nine cell lines; for GI50: Homo sapiens, read-out: Log GI50 (concentration in mol/L causing 50% growth inhibition) (converted)
Procedure: as §1

[11] = tested on: human cancer cell lines of colon (Colo205), lung (Hop-62), cervix (SiHa), prostate (DU145, PC3), oral (DWD, HT1080), and breast (MCF7, Zr-75-1) origin; assay: In vitro evaluation of cytotoxic activity in selected human cancer cell lines, 48 h exposure; type: cell-based; conditions: 48 h continuous drug exposure
Procedure: In vitro evaluation of cytotoxic activity. Compounds 6a, 6b, 6d, 6e, 8a and 8b were evaluated for in vitro anticancer activity against nine human tumor cells derived from six cancer types (colon, prostate, oral, lung, cervix and breast cancer) as shown in Table 2. […] Compounds 6a, 6b, 6d, 6e, 8a and 8b have been evaluated for their in vitro cytotoxicity in selected human cancer cell lines of colon (Colo205), lung (Hop-62), cervix (SiHa), prostate (DU145, PC3), oral (DWD, HT1080), and breast (MCF7, Zr-75-1) origin. A protocol of 48 h continuous drug exposure has been used and an […] has been used to estimate cell viability or growth. The results are expressed as percent of cell growth determined relative to that of untreated control cells

[12] = tested on: sixty human tumor cells derived from nine cancer types; assay: NCI in vitro anticancer screen, 48 h exposure, SRB assay, mean over all lines; type: cell-based; conditions: for Log10LC50 mean graph midpoint (MG_MID) / Log10GI50 mean graph midpoint (MG_MID) / Log10TGI mean graph midpoint (MG_MID): human tumor cell lines, 48 h exposure; for Log10LC50 mean graph midpoint (MG_MID): 50% cell death; for Log10GI50 mean graph midpoint (MG_MID): 50% cell growth inhibition; for Log10TGI mean graph midpoint (MG_MID): total cell growth inhibition
Procedure: as §1

[13] = tested on: colon cancer KM12 cell line; assay: NCI in vitro anticancer screen, KM12; type: cell-based; conditions: Homo sapiens
Procedure: as §1
(§2) In the non-small cell lung cancer panel, the growth of HOP-62, […] were affected by compound 6d with G150 values as 11.7, 13.9 and 17.2 nM respectively. […] In vitro cytotoxicity of compounds 6d, 8a, and 8b in selected cancer cell lines has been illustrated in Table 3. The average G150 values for each cancer panel of compounds 6a, 6b, 6d, 6e, 8a and 8b have been illustrated in Table 2.

[14] = tested on: ovarian cancer OVCAR-5 cell line; assay: NCI in vitro anticancer screen, OVCAR-5; type: cell-based; conditions: Homo sapiens
Procedure: as §1, §2

[15] = tested on: ovarian cancer OVCAR-8 cell line; assay: NCI in vitro anticancer screen, OVCAR-8; type: cell-based; conditions: Homo sapiens
Procedure: as §1, §2

[16] = tested on: CNS SF-295, SF-539, SNB-19 and SNB-75 cell lines; assay: NCI in vitro anticancer screen, CNS lines; type: cell-based; conditions: Homo sapiens; range over SF-295, SF-539, SNB-19 and SNB-75
Procedure: as §1, §2

[17] = tested on: colon cancer HCT-116 cell line; assay: NCI in vitro anticancer screen, HCT-116; type: cell-based; conditions: Homo sapiens
Procedure: as §1, §2

[18] = tested on: ovarian cancer OVCAR-4 cell line; assay: NCI in vitro anticancer screen, OVCAR-4; type: cell-based; conditions: Homo sapiens
Procedure: as §1, §2

[19] = tested on: colon cancer HCC-2988 cell line; assay: NCI in vitro anticancer screen, HCC-2988; type: cell-based; conditions: Homo sapiens
Procedure: as §1, §2

[20] = tested on: ovarian cancer SK-OV-3 cell line; assay: NCI in vitro anticancer screen, SK-OV-3; type: cell-based; conditions: Homo sapiens
Procedure: as §1, §2

[21] = tested on: HOP-62, NCI-H23 cell lines; assay: NCI in vitro anticancer screen, non-small cell lung lines; type: cell-based; conditions: Homo sapiens, non-small cell lung cancer panel
Procedure: as §1, §2

[22] = tested on: renal and breast cancer panels; assay: NCI in vitro anticancer screen, renal and breast panels; type: cell-based; conditions: Homo sapiens; range over renal and breast cancer panels
Procedure: as §1, §2

Compound	GI50 [1]	GI50 [2]	ΔTm after incubation at 37° C. for 0 h [3]	ΔTm after incubation at 37° C. for 18 h [3]	ΔTm after incubation at 37° C. for 36 h [3]	GI50 [4]	GI50 [5]	GI50 [6]	GI50 [7]	GI50 [8]	GI50 [9]	GI50 [10]	cytotoxicity against some cancer cell lines [11]	Log10LC50 mean graph midpoint (MG_MID) [12]	Log10GI50 mean graph midpoint (MG_MID) [12]	Log10TGI mean graph midpoint (MG_MID) [12]	also measured
CC(C)(C)c1cn2cccc(C(=O)N3CCN(CC(=O)Nc4ccc(Cl)cc4C(=O)c4ccccc4Cl)CC3)c2n1 [Compound 6e]	661 nM	851 nM	1.9 °C	2.3 °C	2.8 °C	3470 nM	2140 nM	1050 nM	3550 nM	1350 nM	589 nM	1410 nM	promising cytotoxicity	−5.39	−5.93	−6.28	
O=C(CN1CCN(c2ncnc3ccccc23)CC1)Nc1ccc(Cl)cc1C(=O)c1ccccc1Cl [Compound 6d, N1-4-chloro-2-(2-chlorobenzoyl)phenylJ-2-[4-(4-quinazolinyl)piperazino]acetamide]	389 nM	151 nM	1.5 °C	1.9 °C	2.7 °C	204 nM	178 nM	214 nM	219 nM	398 nM	229 nM	224 nM	promising cytotoxicity	−4.62	−6.82	−6.56	GI50 [13]: 11.4 nM; GI50 [14]: 14.9 nM; GI50 [15]: 30.5 nM; GI50 [16]: 11.6 to 24.2 nM; GI50 [17]: 11.2 nM; GI50 [18]: 30.6 nM; GI50 [19]: 11.6 nM; GI50 [20]: 78.6 nM; GI50 [21]: 11.7 nM; GI50 [22]: 11.6 to 43.4 nM; GI50 ([12]; Homo sapiens, wide spectrum of activity against sixty cell lines in nine cell panels): < 20000 nM
O=C(CN1CCN(CCCOc2oc3ccccc3c(=O)c2-c2ccccc2)CC1)Nc1ccc(Cl)cc1C(=O)c1ccccc1Cl [Compound 8a]			1.4 °C	2.1 °C	2.1 °C								promising cytotoxicity	−5.32	−6.19	−6.33	Log GI50 (concentration in mol/L causing 50% growth inhibition) [1]: −5.75 mol/L; Log GI50 (concentration in mol/L causing 50% growth inhibition) [2]: −6.11 mol/L; Log GI50 (concentration in mol/L causing 50% growth inhibition) [4]: −5.79 mol/L; Log GI50 (concentration in mol/L causing 50% growth inhibition) [5]: −5.70 mol/L; Log GI50 (concentration in mol/L causing 50% growth inhibition) [6]: −5.71 mol/L; Log GI50 (concentration in mol/L causing 50% growth inhibition) [7]: −5.80 mol/L; Log GI50 (concentration in mol/L causing 50% growth inhibition) [8]: −5.56 mol/L; Log GI50 (concentration in mol/L causing 50% growth inhibition) [9]: −5.75 mol/L; Log GI50 (concentration in mol/L causing 50% growth inhibition) [10]: −5.69 mol/L

— patent publication US8394954B2, “Benzophenone hybrids as anticancer agents and processes for the preparation thereof” (Council of Scientific & Industrial Research, priority 2007, dated 2013)
